From ChEMBL document CHEMBL6096698, “Discovery of a Selective and Orally Bioavailable RET Degrader with Effectiveness in Various Mutations” (J Med Chem, 2025)

How the values were obtained:
[1] = system: BaF3; assay: Antiproliferative activity against mouse BaF3 cells stably expressing KIF5B-RET incubated for 72 hrs by CCK8 assay; type: functional, cell-based; conditions: BaF3, 72 h
[2] = system: BaF3; assay: Antiproliferative activity against mouse BaF3 cells stably expressing KIF5B-RET V804M mutant incubated for 72 hrs by CCK8 assay; type: functional, cell-based; conditions: BaF3, 72 h
[3] = system: BaF3; assay: Antiproliferative activity against mouse BaF3 cells stably expressing KIF5B-RET G810C mutant incubated for 72 hrs by CCK8 assay; type: functional, cell-based; conditions: BaF3, 72 h
[4] = system: BaF3; assay: PROTAC activity at CRBN/KIF5B-RET (unknown origin) expressed in mouse BaF3 cells assessed as induction of RET degradation at 10 nM incubated for 24 hrs by immunoblot analysis relative to control; type: cell-based
[5] = system: BaF3; assay: Antiproliferative activity against mouse BaF3 cells stably expressing KIF5B-RET G810S mutant incubated for 72 hrs by CCK8 assay; type: functional, cell-based; conditions: BaF3, 72 h
[6] = system: BaF3; assay: Antiproliferative activity against mouse BaF3 cells stably expressing KIF5B-RET G810R mutant incubated for 72 hrs by CCK8 assay; type: functional, cell-based; conditions: BaF3, 72 h
[7] = molecular target: Proto-oncogene tyrosine-protein kinase receptor Ret (Homo sapiens, UniProt P07949); assay: Inhibition of RET (unknown origin) preincubated for 10 mins followed by substrate/ATP addition measured after 30 mins by HTRF assay
Sequence of Proto-oncogene tyrosine-protein kinase receptor Ret (P07949 whole entry): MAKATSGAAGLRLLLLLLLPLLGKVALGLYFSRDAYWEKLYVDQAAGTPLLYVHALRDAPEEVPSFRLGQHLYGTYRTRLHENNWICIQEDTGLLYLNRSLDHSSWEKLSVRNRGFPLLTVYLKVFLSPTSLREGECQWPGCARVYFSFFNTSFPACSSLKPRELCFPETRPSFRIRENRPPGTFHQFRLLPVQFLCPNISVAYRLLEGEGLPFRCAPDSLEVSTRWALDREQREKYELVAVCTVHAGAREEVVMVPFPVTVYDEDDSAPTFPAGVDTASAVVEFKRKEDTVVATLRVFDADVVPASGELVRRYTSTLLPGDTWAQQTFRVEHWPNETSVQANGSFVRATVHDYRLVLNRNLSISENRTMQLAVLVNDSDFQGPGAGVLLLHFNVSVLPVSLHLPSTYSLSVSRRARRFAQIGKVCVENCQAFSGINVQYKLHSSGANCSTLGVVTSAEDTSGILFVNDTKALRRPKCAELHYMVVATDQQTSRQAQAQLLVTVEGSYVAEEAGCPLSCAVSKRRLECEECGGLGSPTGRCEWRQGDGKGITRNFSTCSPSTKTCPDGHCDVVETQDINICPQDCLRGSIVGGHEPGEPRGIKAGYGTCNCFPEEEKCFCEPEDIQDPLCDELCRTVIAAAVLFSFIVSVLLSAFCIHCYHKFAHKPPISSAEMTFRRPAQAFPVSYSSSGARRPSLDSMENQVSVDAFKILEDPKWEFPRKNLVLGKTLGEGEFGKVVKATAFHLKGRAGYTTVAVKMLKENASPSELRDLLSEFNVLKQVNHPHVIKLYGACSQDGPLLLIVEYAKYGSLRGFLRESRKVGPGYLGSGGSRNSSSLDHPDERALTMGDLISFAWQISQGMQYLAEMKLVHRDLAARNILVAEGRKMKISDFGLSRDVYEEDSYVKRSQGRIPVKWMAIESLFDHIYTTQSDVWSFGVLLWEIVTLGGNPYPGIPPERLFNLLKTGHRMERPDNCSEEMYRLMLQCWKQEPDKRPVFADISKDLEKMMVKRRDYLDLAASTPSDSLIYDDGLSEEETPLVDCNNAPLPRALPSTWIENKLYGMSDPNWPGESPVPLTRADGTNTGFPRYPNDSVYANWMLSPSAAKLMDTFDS

[8] = system: BaF3; assay: PROTAC activity at VHL/KIF5B-RET (unknown origin) expressed in mouse BaF3 cells assessed as induction of RET degradation at 10 nM incubated for 24 hrs by immunoblot analysis relative to control; type: cell-based

Row | IC50 [1] [nM] | IC50 [2] [nM] | IC50 [3] [nM] | IC50 [5] [nM] | IC50 [6] [nM] | IC50 [7] [nM] | Structure (SMILES) | Activity [4] [%] | Activity [8] [%]
1 | 10.3 | 21.4 | 192 | 126 | 1890 | – | COc1ccc(CN2C3CC2CN(c2ccc(-c4cc(N5CCN(CC6CCN(c7ccc8c(c7)C(=O)N(C7CCC(=O)NC7=O)C8=O)CC6)CC5)cn5ncc(C#N)c45)cn2)C3)cn1 (centres undefined) | 41 | –
2 | 2.9 | 13.1 | 182 | 78.3 | 552 | 0.391 | COc1ccc(CN2C3CC2CN(c2ccc(-c4cc(N5CCC(N6CCN(C(=O)CCCCCNc7ccc8c(c7)C(=O)N(C7CCC(=O)NC7=O)C8=O)CC6)CC5)cn5ncc(C#N)c45)cn2)C3)cn1 (centres undefined) | 61 | –
3 | 12.2 | 142 | 1020 | 272 | 1140 | – | COc1ccc(CN2C3CC2CN(c2ccc(-c4cc(N5CCN(C(=O)CCCNc6cccc7c6C(=O)N(C6CCC(=O)NC6=O)C7=O)CC5)cn5ncc(C#N)c45)cn2)C3)cn1 (centres undefined) | 44 | –
4 | 1.6 | 13.7 | 126 | 62.1 | 453 | 0.203 | COc1ccc(CN2C3CC2CN(c2ccc(-c4cc(N5CCN(C(=O)CCCCCCCNc6cccc7c6C(=O)N(C6CCC(=O)NC6=O)C7=O)CC5)cn5ncc(C#N)c45)cn2)C3)cn1 (centres undefined) | 73 | –
5 | 16.5 | 178 | 1320 | 176 | 1210 | – | COc1ccc(CN2C3CC2CN(c2ccc(-c4cc(N5CCN(C(=O)CNc6ccc7c(c6)C(=O)N(C6CCC(=O)NC6=O)C7=O)CC5)cn5ncc(C#N)c45)cn2)C3)cn1 (centres undefined) | 40 | –
6 | 5.9 | 17.8 | 212 | 93.5 | 672 | – | COc1ccc(CN2C3CC2CN(c2ccc(-c4cc(N5CCC(N6CCN(C(=O)CCCCCCCNc7cccc8c7C(=O)N(C7CCC(=O)NC7=O)C8=O)CC6)CC5)cn5ncc(C#N)c45)cn2)C3)cn1 (centres undefined) | 50 | –
7 | 14.2 | 108 | 522 | 674 | 1880 | – | COc1ccc(CN2C3CC2CN(c2ccc(-c4cc(N5CCN(CCCCCCCCC(=O)N[C@H](C(=O)N6C[C@H](O)C[C@H]6C(=O)N[C@@H](C)c6ccc(-c7scnc7C)cc6)C(C)(C)C)CC5)cn5ncc(C#N)c45)cn2)C3)cn1 | – | 38
8 | 3.4 | 14.2 | 190 | 86.1 | 614 | – | COc1ccc(CN2C3CC2CN(c2ccc(-c4cc(N5CCC(N6CCN(C(=O)CCCCCCCNc7ccc8c(c7)C(=O)N(C7CCC(=O)NC7=O)C8=O)CC6)CC5)cn5ncc(C#N)c45)cn2)C3)cn1 (centres undefined) | 58 | –
9 | 12.5 | 27.6 | 61.8 | 105 | 737 | – | COc1ccc(CN2C3CC2CN(c2ccc(-c4cc(N5CCC(N6CCN(CCCCCC#Cc7cccc8c7CN(C7CCC(=O)NC7=O)C8=O)CC6)CC5)cn5ncc(C#N)c45)cn2)C3)cn1 (centres undefined) | 40 | –
10 | 309 | > 5000 | > 5000 | > 5000 | > 5000 | – | COc1ccc(CN2C3CC2CN(c2ccc(-c4cc(N5CCN(C(=O)CCCCC(=O)N[C@H](C(=O)N6C[C@H](O)C[C@H]6C(=O)N[C@@H](C)c6ccc(-c7scnc7C)cc6)C(C)(C)C)CC5)cn5ncc(C#N)c45)cn2)C3)cn1 | – | 10
11 | 35.4 | 85.3 | 818 | 552 | 1330 | – | COc1ccc(CN2C3CC2CN(c2ccc(-c4cc(N5CCN(C(=O)CCCCCCCCCCC(=O)N[C@H](C(=O)N6C[C@H](O)C[C@H]6C(=O)N[C@@H](C)c6ccc(-c7scnc7C)cc6)C(C)(C)C)CC5)cn5ncc(C#N)c45)cn2)C3)cn1 | – | 24
12 | 14.9 | 152 | 831 | 127 | 812 | – | COc1ccc(CN2C3CC2CN(c2ccc(-c4cc(N5CCC(N6CCN(C(=O)CCCNc7ccc8c(c7)C(=O)N(C7CCC(=O)NC7=O)C8=O)CC6)CC5)cn5ncc(C#N)c45)cn2)C3)cn1 (centres undefined) | 39 | –
13 | 40.2 | 983 | > 5000 | > 5000 | > 5000 | – | COc1ccc(CN2C3CC2CN(c2ccc(-c4cc(N5CCN(CCCCCCC(=O)N[C@H](C(=O)N6C[C@H](O)C[C@H]6C(=O)N[C@@H](C)c6ccc(-c7scnc7C)cc6)C(C)(C)C)CC5)cn5ncc(C#N)c45)cn2)C3)cn1 | – | 23
14 | 15.7 | 38.4 | 372 | > 5000 | 750 | – | COc1ccc(CN2C3CC2CN(c2ccc(-c4cc(N5CCN(C6CCN(c7ccc8c(c7)C(=O)N(C7CCC(=O)NC7=O)C8=O)CC6)CC5)cn5ncc(C#N)c45)cn2)C3)cn1 (centres undefined) | 36 | –
15 | 177 | 372 | > 5000 | > 5000 | > 5000 | – | COc1ccc(CN2C3CC2CN(c2ccc(-c4cc(N5CCN(C(=O)CCCCCCC(=O)N[C@H](C(=O)N6C[C@H](O)C[C@H]6C(=O)N[C@@H](C)c6ccc(-c7scnc7C)cc6)C(C)(C)C)CC5)cn5ncc(C#N)c45)cn2)C3)cn1 | – | 17
16 | 12.3 | 36.5 | 410 | 216 | > 5000 | – | COc1ccc(CN2C3CC2CN(c2ccc(-c4cc(N5CCN(C(=O)CCCCCCCCC(=O)N[C@H](C(=O)N6C[C@H](O)C[C@H]6C(=O)N[C@@H](C)c6ccc(-c7scnc7C)cc6)C(C)(C)C)CC5)cn5ncc(C#N)c45)cn2)C3)cn1 | – | 39
17 | 19 | 190 | 1380 | 384 | 1770 | – | COc1ccc(CN2C3CC2CN(c2ccc(-c4cc(N5CCN(C(=O)CNc6cccc7c6C(=O)N(C6CCC(=O)NC6=O)C7=O)CC5)cn5ncc(C#N)c45)cn2)C3)cn1 (centres undefined) | 33 | –
18 | 86.8 | 126 | 254 | 723 | > 5000 | – | COc1ccc(CN2C3CC2CN(c2ccc(-c4cc(N5CCN(CCC(=O)N[C@H](C(=O)N6C[C@H](O)C[C@H]6C(=O)N[C@@H](C)c6ccc(-c7scnc7C)cc6)C(C)(C)C)CC5)cn5ncc(C#N)c45)cn2)C3)cn1 | – | 29
19 | 5.7 | 14.1 | 228 | 102 | 714 | – | COc1ccc(CN2C3CC2CN(c2ccc(-c4cc(N5CCN(C(=O)CCCCCCCNc6ccc7c(c6)C(=O)N(C6CCC(=O)NC6=O)C7=O)CC5)cn5ncc(C#N)c45)cn2)C3)cn1 (centres undefined) | 52 | –
20 | 6.8 | 17.4 | 232 | 125 | 811 | – | COc1ccc(CN2C3CC2CN(c2ccc(-c4cc(N5CCN(C(=O)CCCCCNc6ccc7c(c6)C(=O)N(C6CCC(=O)NC6=O)C7=O)CC5)cn5ncc(C#N)c45)cn2)C3)cn1 (centres undefined) | 49 | –
21 | 5.1 | 12.4 | 89.2 | 84.1 | 321 | – | COc1ccc(CN2C3CC2CN(c2ccc(-c4cc(N5CCC(N6CCN(CCCC#Cc7ccc8c(c7)C(=O)N(C7CCC(=O)NC7=O)C8=O)CC6)CC5)cn5ncc(C#N)c45)cn2)C3)cn1 (centres undefined) | 60 | –
22 | 5.3 | 16.6 | 206 | 81.9 | 572 | – | COc1ccc(CN2C3CC2CN(c2ccc(-c4cc(N5CCC(N6CCN(C(=O)CNc7ccc8c(c7)C(=O)N(C7CCC(=O)NC7=O)C8=O)CC6)CC5)cn5ncc(C#N)c45)cn2)C3)cn1 (centres undefined) | 52 | –
23 | 14.4 | 15.3 | 198 | 89.8 | 626 | – | COc1ccc(CN2C3CC2CN(c2ccc(-c4cc(N5CCC(N6CCN(C(=O)CNc7cccc8c7C(=O)N(C7CCC(=O)NC7=O)C8=O)CC6)CC5)cn5ncc(C#N)c45)cn2)C3)cn1 (centres undefined) | 36 | –
24 | 229 | 279 | 852 | > 5000 | > 5000 | – | COc1ccc(CN2C3CC2CN(c2ccc(-c4cc(N5CCN(CCCCC(=O)N[C@H](C(=O)N6C[C@H](O)C[C@H]6C(=O)N[C@@H](C)c6ccc(-c7scnc7C)cc6)C(C)(C)C)CC5)cn5ncc(C#N)c45)cn2)C3)cn1 | – | 15
25 | 4.3 | 9.3 | 54.3 | 63.7 | 206 | – | COc1ccc(CN2C3CC2CN(c2ccc(-c4cc(N5CCC(N6CCN(CCCC#Cc7cccc8c7C(=O)N(C7CCC(=O)NC7=O)C8=O)CC6)CC5)cn5ncc(C#N)c45)cn2)C3)cn1 (centres undefined) | 62 | –
26 | 6.1 | 17.2 | 216 | 105 | 794 | – | COc1ccc(CN2C3CC2CN(c2ccc(-c4cc(N5CCN(C(=O)CCCCCNc6cccc7c6C(=O)N(C6CCC(=O)NC6=O)C7=O)CC5)cn5ncc(C#N)c45)cn2)C3)cn1 (centres undefined) | 52 | –
27 | 13.3 | 209 | 1410 | 202 | 1640 | – | COc1ccc(CN2C3CC2CN(c2ccc(-c4cc(N5CCN(C(=O)CCCNc6ccc7c(c6)C(=O)N(C6CCC(=O)NC6=O)C7=O)CC5)cn5ncc(C#N)c45)cn2)C3)cn1 (centres undefined) | 41 | –
